Measured values as given in patent US5952008A, “Processes for preparing compositions for inhalation” (AB Astra, priority 1993, dated 1999).

Columns and labels:
[1] = tested on: CaCo-2 epithelial cell monolayer; assay: In vitro CaCo-2 epithelial cell monolayer transport assay; format: in vitro ADME; conditions: for Transport rate across the monolayer with enhancer, in words: up to 16 mM sodium caprate
Procedure: A standard in vitro assay utilizing an epithelial cell line, CaCo-2 (available through the American Type Culture Collection (ATCC), Rockville, Md., USA), has been developed to assess the ability of various enhancer compounds to promote transport of markers across an epithelial cell monolayer, as a model for the epithelial cell layer which functions in the lung to separate the alveolus from the pulmonary blood supply.
In this assay, the enhancer and polypeptide or other marker are dissolved in aqueous solution at various proportions and/or concentrations, and applied to the apical side of the cell monolayer. After 60 min incubation at 37° C. and 95% RH (relative humidity), the amount of the marker on the basolateral side of the cells is determined, e.g., by use of a radioactively labelled marker.

[2] = Inhalation of insulin/enhancer powder in rats, blood glucose monitored as measure of insulin uptake; format: in vivo, rat; conditions: for Enhancement of polypeptide (insulin) absorption in the lung, result in words: rat model; for Effect (enhancement of insulin uptake, blood glucose level): rats, inhaled powder
Procedure: Each of the compounds listed in Table I was tested for its ability to enhance uptake of a polypeptide (insulin) in a rat model.
Various forms of insulin were employed in the different trials: recombinant human, semisynthetic human or bovine. Each formulation was prepared as above, drying and processing the insulin/enhancer or insulin/enhancer/lactose solution to produce an inhalable powder. The powder was administered to rats by inhalation, and the blood glucose levels of the rats were subsequently monitored as a measure of insulin uptake. These levels were compared to the corresponding values obtained from rats which had inhaled insulin formulations without enhancer.

[3] = Enhancer:Insulin:lactose 4:4:92
[4] = Enhancer:Insulin:lactose 25:75:0
[5] = Enhancer:Insulin:lactose 2:4:94

Compound	Enhancement of polypeptide (insulin) absorption in the lung, result in words [2]	Effect (enhancement of insulin uptake, blood glucose level) [2, 3]	also measured
cytochrome C			Transport rate across the monolayer with enhancer, in words [1]: no increase in transport rate
C[C@H](CCC(=O)NCCS(=O)(=O)O)[C@H]1CC[C@H]2[C@@H]3[C@H](O)C[C@@H]4C[C@H](O)CC[C@]4(C)[C@H]3C[C@H](O)[C@]12C [Sodium taurocholate]	effectively enhance polypeptide absorption in the lung	+	
CCCCCCCCCC(=O)[O-].[K+] [Potassium caprate]	effective		Effect (enhancement of insulin uptake, blood glucose level) ([2]; Enhancer:Insulin:lactose 27:73:0): +
O=C(O)CN(CCN(CC(=O)O)CC(=O)O)CC(=O)O [EDTA, ethylenediaminetetraacetic acid]	ineffective		
CCCCCCCCCCCC(=O)[O-].[Na+] [Sodium laurate]	perform well		Effect (enhancement of insulin uptake, blood glucose level) [2, 4]: +
Lysine caprate	effective		Effect (enhancement of insulin uptake, blood glucose level) ([2]; Enhancer:Insulin:lactose 35:65:0): +
Lysophosphatidylcholine	effective enhancer	+	
CCCCCCCC(=O)[O-].[Na+] [Sodium caprylate]			Effect (enhancement of insulin uptake, blood glucose level) [2, 4]: -
carbonic anhydrase			Transport rate across the monolayer with enhancer, in words [1]: no increase in transport rate
NC(=O)CC[C@@H]1NC(=O)[C@H](Cc2ccccc2)NC(=O)[C@H](Cc2ccc(O)cc2)NC(=O)[C@@H](N)CSSC[C@@H](C(=O)N2CCC[C@H]2C(=O)N[C@@H](CCCN=C(N)N)C(=O)NCC(N)=O)NC(=O)[C@H](CC(N)=O)NC1=O [vasopressin]			Increase in amount absorbed across the monolayer compared to absence of enhancer ([1]; 16 mM sodium caprate): 10-15 times
C[C@H](CCC(=O)O)[C@H]1CC[C@H]2[C@@H]3[C@@H](O)C[C@@H]4C[C@H](O)CC[C@]4(C)[C@H]3CC[C@]12C [Sodium ursodeoxycholate]	effectively enhance polypeptide absorption in the lung	+	
CCCCCCCCOC1O[C@H](CO)[C@@H](O)[C@H](O)[C@H]1O (stereo partly shown) [Octylglucopyranoside]	some absorption enhancing properties	(+)	
CCCCCCCCCCCCCC(=O)[O-].[Na+] [Sodium myristate]	perform well		Effect (enhancement of insulin uptake, blood glucose level) ([2]; Enhancer:Insulin:lactose 30:70:0): +
C[C@H](CCC(=O)NCC(=O)O)[C@H]1CC[C@H]2[C@@H]3[C@H](O)C[C@@H]4C[C@H](O)CC[C@]4(C)[C@H]3C[C@H](O)[C@]12C [Sodium glycocholate]	effectively enhance polypeptide absorption in the lung	+	
albumin			Transport rate across the monolayer with enhancer, in words [1]: no increase in transport rate
CC(=O)OC1CC2(C)C(CC(O)C3C4(C)CCC(O)C(C)C4CCC32C)C1=C(CCCC(C)C)C(=O)NCCS(=O)(=O)O (stereo not shown) [Sodium tarodihydrofusidate]	effectively enhance polypeptide absorption in the lung		Effect (enhancement of insulin uptake, blood glucose level) [2, 5]: +
CCCCCCCC(=O)OCC(COP(=O)([O-])OCC[N+](C)(C)C)OC(=O)CCCCCCC (stereo not shown) [Dioctanoylphosphatidylcholine]			Effect (enhancement of insulin uptake, blood glucose level) [2, 5]: (+); Effect (enhancement of insulin uptake, blood glucose level) ([2]; Enhancer:Insulin:lactose 4:4:94): -
Dimethyl-β-cyclodextrin	absorption enhancing effect		Effect (enhancement of insulin uptake, blood glucose level) ([2]; Enhancer:Insulin:lactose 75:25:0): +
CCCCCCCC/C=C\CCCCCCCC(=O)[O-].[K+] [Potassium oleate]		+	
CCCCCCCCCC(=O)[O-].[Na+] [Sodium caprate]	perform well		Amount of marker (mannitol) appearing on the basolateral side, insulin added ([1]; 1:3 sodium caprate:insulin by weight, FIG. 2): dependent upon the concentration of enhancer used; Amount of marker (mannitol) appearing on the basolateral side ([1]; sodium caprate up to 16 mM, 60 min, 37° C., FIG. 1): dependent upon the concentration of enhancer used; Effect (enhancement of insulin uptake, blood glucose level) ([2]; Enhancer:Insulin:lactose 10:90:0): (+); Effect (enhancement of insulin uptake, blood glucose level) ([2]; Enhancer:Insulin:lactose 17.5:82.5:0): (+); Effect (enhancement of insulin uptake, blood glucose level) [2, 4]: +
